Data as given in ChEMBL document CHEMBL4622969, “Design and biological evaluation of novel HIV-1 protease inhibitors with isopropanol as P1' ligand to enhance binding with S1' subsite” (Bioorg Med Chem, 2020).

Legend:
[1] = test system: Human immunodeficiency virus 1; assay: Antiviral activity against VSV-G pseudotyped darunavir-resistant HIV1 NL4-3 V32I, L33F,I54M and I84V mutant infected in human SUPT1 cells at 100 nM infected with supernatants from virus-infected human 293T cells after 48 hrs by luciferase assay relative to control; assay type: functional
[2] = test system: Human immunodeficiency virus 1; assay: Antiviral activity against VSV-G pseudotyped wild type HIV1 NL4-3 infected in human TZM-b1 cells at 100 nM infected with supernatants from virus-infected human SUPT1 cells after 48 hrs by luciferase assay relative to control; assay type: functional
[3] = target: Human immunodeficiency virus type 1 protease (Human immunodeficiency virus 1, UniProt Q72874); assay: Inhibition of HIV-1 protease expressed in Escherichia coli using Arg-Glu(EDANS)-Ser-Gln-Asn-Tyr-Pro-Ile-Val-Gln-Lys(DABCYL)-Arg as substrate preincubated for 20 to 30 mins followed by substrate addition by FRET based assay
[4] = test system: Human immunodeficiency virus 1; assay: Antiviral activity against VSV-G pseudotyped darunavir-resistant HIV1 NL4-3 harboring V32I, L33F,I54M and I84V mutant infected in human SUPT1 cells at 5 uM infected with supernatants from virus-infected human 293T cells after 48 hrs by luciferase assay relative to control; assay type: functional
[5] = test system: Human immunodeficiency virus 1; assay: Antiviral activity against VSV-G pseudotyped wild type HIV1 NL4-3 infected in human TZM-b1 cells at 5 uM infected with supernatants from virus-infected human SUPT1 cells after 48 hrs by luciferase assay relative to control; assay type: functional
[6] = test system: Human immunodeficiency virus 1; assay: Resistance index, ratio of antiviral activity against VSV-G pseudotyped wild type HIV1 NL4-3 infected in human TZM-b1 cells infected with supernatants from virus-infected human SUPT1 cells to antiviral activity against darunavir-resistant HIV1 NL4-3 infected in human SUPT1 cells infected with supernatants from virus-infected human 293T cells at 5 uM by luciferase assay; assay type: functional

CC(C)CN(C[C@@H](O)[C@H](Cc1ccccc1)NC(=O)O[C@H]1CO[C@H]2OCC[C@H]21)S(=O)(=O)c1ccc(N)cc1
inhibition (INH) [1]: 59%
inhibition (INH) [2]: 95%

C[C@H](O)CN(C[C@@H](O)[C@H](Cc1ccccc1)NC(=O)c1cc(O)cc(O)c1)S(=O)(=O)c1ccc([N+](=O)[O-])cc1
IC50 [3]: 0.0374 µM

C[C@H](O)CN(C[C@@H](O)[C@H](Cc1ccccc1)NC(=O)c1ccccc1O)S(=O)(=O)c1ccc(C(F)(F)F)cc1
IC50 [3]: 0.257 µM

C[C@H](O)CN(C[C@@H](O)[C@H](Cc1ccccc1)NC(=O)c1cc(O)cc(O)c1)S(=O)(=O)c1ccc(C(F)(F)F)cc1
IC50 [3]: 0.0272 µM

C[C@H](O)CN(C[C@@H](O)[C@H](Cc1ccccc1)NC(=O)c1ccc(O)c(O)c1)S(=O)(=O)c1ccc([N+](=O)[O-])cc1
IC50 [3]: 0.00656 µM

COc1cc(C(=O)N[C@@H](Cc2ccccc2)[C@H](O)CN(C[C@@H](C)O)S(=O)(=O)c2ccc(C(F)(F)F)cc2)cc(OC)c1O
IC50 [3]: 0.0118 µM

COc1cc(C(=O)N[C@@H](Cc2ccccc2)[C@H](O)CN(C[C@H](C)O)S(=O)(=O)c2ccc(C(F)(F)F)cc2)cc(OC)c1O
IC50 [3]: 0.014 µM

C[C@@H](O)CN(C[C@@H](O)[C@H](Cc1ccccc1)NC(=O)c1ccccc1O)S(=O)(=O)c1ccc([N+](=O)[O-])cc1
IC50 [3]: 0.009 µM

COc1ccc(C(=O)N[C@@H](Cc2ccccc2)[C@H](O)CN(C[C@@H](C)O)S(=O)(=O)c2ccc([N+](=O)[O-])cc2)c(O)c1
IC50 [3]: 0.625 µM

COc1cc(O)c(C(=O)N[C@@H](Cc2ccccc2)[C@H](O)CN(C[C@H](C)O)S(=O)(=O)c2ccc([N+](=O)[O-])cc2)cc1OC
IC50 [3]: 1.31 µM

C[C@@H](O)CN(C[C@@H](O)[C@H](Cc1ccccc1)NC(=O)c1ccc(O)c(O)c1)S(=O)(=O)c1ccc([N+](=O)[O-])cc1
IC50 [3]: 0.0103 µM

C[C@@H](O)CN(C[C@@H](O)[C@H](Cc1ccccc1)NC(=O)c1ccccc1O)S(=O)(=O)c1ccc(C(F)(F)F)cc1
IC50 [3]: 0.0321 µM

COc1ccc(C(=O)N[C@@H](Cc2ccccc2)[C@H](O)CN(C[C@@H](C)O)S(=O)(=O)c2ccc(C(F)(F)F)cc2)c(O)c1
IC50 [3]: 0.427 µM

C[C@H](O)CN(C[C@@H](O)[C@H](Cc1ccccc1)NC(=O)c1ccc(O)cc1O)S(=O)(=O)c1ccc([N+](=O)[O-])cc1
IC50 [3]: 0.0471 µM

COc1cc(C(=O)N[C@@H](Cc2ccccc2)[C@H](O)CN(C[C@@H](C)O)S(=O)(=O)c2ccc([N+](=O)[O-])cc2)cc(OC)c1O
IC50 [3]: 0.0131 µM

COc1cc(O)c(C(=O)N[C@@H](Cc2ccccc2)[C@H](O)CN(C[C@@H](C)O)S(=O)(=O)c2ccc([N+](=O)[O-])cc2)cc1OC
IC50 [3]: 0.102 µM

C[C@@H](O)CN(C[C@@H](O)[C@H](Cc1ccccc1)NC(=O)c1cc(O)cc(O)c1)S(=O)(=O)c1ccc([N+](=O)[O-])cc1
IC50 [3]: 0.00483 µM
inhibition (INH) [4]: 42%
inhibition (INH) [5]: 58%
Selectivity Index [6]: 1.38

COc1cc(O)c(C(=O)N[C@@H](Cc2ccccc2)[C@H](O)CN(C[C@H](C)O)S(=O)(=O)c2ccc(C(F)(F)F)cc2)cc1OC
IC50 [3]: 0.284 µM

C[C@H](O)CN(C[C@@H](O)[C@H](Cc1ccccc1)NC(=O)c1ccccc1O)S(=O)(=O)c1ccc([N+](=O)[O-])cc1
IC50 [3]: 0.0782 µM

COc1cc(O)c(C(=O)N[C@@H](Cc2ccccc2)[C@H](O)CN(C[C@@H](C)O)S(=O)(=O)c2ccc(C(F)(F)F)cc2)cc1OC
IC50 [3]: 0.0614 µM

C[C@@H](O)CN(C[C@@H](O)[C@H](Cc1ccccc1)NC(=O)c1ccc(O)c(O)c1)S(=O)(=O)c1ccc(C(F)(F)F)cc1
IC50 [3]: 0.00164 µM
inhibition (INH) [4]: 46%
inhibition (INH) [5]: 66%
Selectivity Index [6]: 1.43

COc1ccc(C(=O)N[C@@H](Cc2ccccc2)[C@H](O)CN(C[C@H](C)O)S(=O)(=O)c2ccc(C(F)(F)F)cc2)c(O)c1
IC50 [3]: 0.187 µM

C[C@H](O)CN(C[C@@H](O)[C@H](Cc1ccccc1)NC(=O)c1ccc(O)c(O)c1)S(=O)(=O)c1ccc(C(F)(F)F)cc1
IC50 [3]: 0.00653 µM

C[C@H](O)CN(C[C@@H](O)[C@H](Cc1ccccc1)NC(=O)c1ccc(O)cc1O)S(=O)(=O)c1ccc(C(F)(F)F)cc1
IC50 [3]: 0.0406 µM

COc1ccc(C(=O)N[C@@H](Cc2ccccc2)[C@H](O)CN(C[C@H](C)O)S(=O)(=O)c2ccc([N+](=O)[O-])cc2)c(O)c1
IC50 [3]: 0.505 µM

COc1cc(C(=O)N[C@@H](Cc2ccccc2)[C@H](O)CN(C[C@H](C)O)S(=O)(=O)c2ccc([N+](=O)[O-])cc2)cc(OC)c1O
IC50 [3]: 0.0758 µM

C[C@@H](O)CN(C[C@@H](O)[C@H](Cc1ccccc1)NC(=O)c1cc(O)cc(O)c1)S(=O)(=O)c1ccc(C(F)(F)F)cc1
IC50 [3]: 0.00233 µM
inhibition (INH) [4]: 51%
inhibition (INH) [5]: 76%
Selectivity Index [6]: 1.49

C[C@@H](O)CN(C[C@@H](O)[C@H](Cc1ccccc1)NC(=O)c1ccc(O)cc1O)S(=O)(=O)c1ccc(C(F)(F)F)cc1
IC50 [3]: 0.0123 µM

C[C@@H](O)CN(C[C@@H](O)[C@H](Cc1ccccc1)NC(=O)c1ccc(O)cc1O)S(=O)(=O)c1ccc([N+](=O)[O-])cc1
IC50 [3]: 0.0134 µM
